Species on record: Rattus norvegicus
Assay: Open TG-GATES - Regimen: Daily Repeat
Assay type: toxicity, organism-based, Sprague-Dawley
Set-up: regimen Daily Repeat, gender Male, age 6 weeks
Conditions: in vivo, po, 300 mg/kg, route gavage, dose level High; for APTT / Bas / Eos / Fbg / Hb / Ht / Lym / MCH / MCHC / MCV / Mono / Neu / PT / Plat / RBC / Ret / WBC: tissue Blood; for KIDNEY_L / KIDNEY_R / KIDNEY_TOTAL: tissue Kidney; for LIVER: tissue Liver; for A/G / ALP / ALT / AST / BUN / CRE / Ca / Cl / DBIL / GLC / IP / K / LDH / Na / PL / RALB / TBIL / TC / TG / TP / gamma-GTP: tissue Plasma

## ClC(Cl)(Cl)Cl [CARBON TETRACHLORIDE]
72 h, time 3 day
  TERMINAL_BW: 213 g
  APTT: 21.4 s
  Bas: 0%
  Eos: 1%
  Fbg: 217 mg/dL
  Hb: 14.1 g/dL
  Ht: 41.3%
  Lym: 73%
  MCH: 21.6 pg
  MCHC: 34.1%
  MCV: 63.2 fL
  Mono: 4%
  Neu: 20.4%
  PT: 13.5 s
  Plat: 114.2 x10_4/uL
  RBC: 655 x10_4/ul
  Ret: 5.5%
  WBC: 96.3 x10_2/uL
  KIDNEY_L: 1 g
  KIDNEY_R: 1 g
  KIDNEY_TOTAL: 1.9 g
  LIVER: 11.1 g
  A/G: 1.5
  ALP: 1664.6 IU/L
  ALT: 124.8 IU/L
  AST: 283.8 IU/L
  BUN: 14.6 mg/dL
  CRE: 0.4 mg/dL
  Ca: 10.7 mg/dL
  Cl: 103.8 meq/L
  DBIL: 0.068 mg/dL
  GLC: 178.4 mg/dL
  IP: 7.3 mg/dL
  K: 3.8 meq/L
  LDH: 355.2 IU/L
  Na: 140.4 meq/L
  PL: 116.4 mg/dL
  RALB: 3.1 g/dL
  TBIL: 0.1 mg/dL
  TC: 49.8 mg/dL
  TG: 28.6 mg/dL
  TP: 5.3 g/dL
  gamma-GTP: 1.2 IU/L
[…], time 7 day
  TERMINAL_BW: 248.2 g
  APTT: 20.7 s
  Bas: 0%
  Eos: 1%
  Fbg: 230.4 mg/dL
  Hb: 13.5 g/dL
  Ht: 39.2%
  Lym: 78.8%
  MCH: 21.4 pg
  MCHC: 34.4%
  MCV: 62.3 fL
  Mono: 3.6%
  Neu: 16.2%
  PT: 12.4 s
  Plat: 106.7 x10_4/uL
  RBC: 629.6 x10_4/ul
  Ret: 6%
  WBC: 130.8 x10_2/uL
  KIDNEY_L: 1.1 g
  KIDNEY_R: 1.1 g
  KIDNEY_TOTAL: 2.2 g
  LIVER: 13.7 g
  A/G: 1.6
  ALP: 1583 IU/L
  ALT: 72.2 IU/L
  AST: 139.2 IU/L
  BUN: 16 mg/dL
  CRE: 0.4 mg/dL
  Ca: 10.6 mg/dL
  Cl: 104.4 meq/L
  DBIL: 0.074 mg/dL
  GLC: 186.2 mg/dL
  IP: 8.5 mg/dL
  K: 4.1 meq/L
  LDH: 305.4 IU/L
  Na: 140.6 meq/L
  PL: 129.2 mg/dL
  RALB: 3.3 g/dL
  TBIL: 0.1 mg/dL
  TC: 56 mg/dL
  TG: 44.4 mg/dL
  TP: 5.4 g/dL
  gamma-GTP: 1.4 IU/L
[…], time 14 day
  TERMINAL_BW: 287.9 g
  APTT: 23 s
  Bas: 0%
  Eos: 1%
  Fbg: 211.6 mg/dL
  Hb: 14.2 g/dL
  Ht: 42.3%
  Lym: 81.4%
  MCH: 19.1 pg
  MCHC: 33.7%
  MCV: 56.9 fL
  Mono: 3%
  Neu: 14.2%
  PT: 12.6 s
  Plat: 101.2 x10_4/uL
  RBC: 744.4 x10_4/ul
  Ret: 3.5%
  WBC: 113.3 x10_2/uL
  KIDNEY_L: 1.1 g
  KIDNEY_R: 1.1 g
  KIDNEY_TOTAL: 2.2 g
  LIVER: 15.9 g
  A/G: 1.6
  ALP: 1597.4 IU/L
  ALT: 149.4 IU/L
  AST: 238.6 IU/L
  BUN: 16.4 mg/dL
  CRE: 0.5 mg/dL
  Ca: 10.4 mg/dL
  Cl: 103.8 meq/L
  DBIL: 0.064 mg/dL
  GLC: 187.6 mg/dL
  IP: 7.5 mg/dL
  K: 3.9 meq/L
  LDH: 389.6 IU/L
  Na: 140.8 meq/L
  PL: 113 mg/dL
  RALB: 3.4 g/dL
  TBIL: 0.1 mg/dL
  TC: 51.6 mg/dL
  TG: 21 mg/dL
  TP: 5.7 g/dL
  gamma-GTP: 1.4 IU/L
[…], time 28 day
  TERMINAL_BW: 367.6 g
  APTT: 25.3 s
  Bas: 0%
  Eos: 1%
  Fbg: 198.8 mg/dL
  Hb: 14.5 g/dL
  Ht: 43.1%
  Lym: 82.4%
  MCH: 17.9 pg
  MCHC: 33.6%
  MCV: 53.1 fL
  Mono: 3.4%
  Neu: 13.2%
  PT: 13.7 s
  Plat: 99.7 x10_4/uL
  RBC: 811.4 x10_4/ul
  Ret: 2.3%
  WBC: 151.6 x10_2/uL
  KIDNEY_L: 1.2 g
  KIDNEY_R: 1.2 g
  KIDNEY_TOTAL: 2.5 g
  LIVER: 20.8 g
  A/G: 1.3
  ALP: 1255 IU/L
  ALT: 300.8 IU/L
  AST: 396.2 IU/L
  BUN: 17.8 mg/dL
  CRE: 0.5 mg/dL
  Ca: 10.6 mg/dL
  Cl: 103.4 meq/L
  DBIL: 0.092 mg/dL
  GLC: 174.2 mg/dL
  IP: 6.4 mg/dL
  K: 3.9 meq/L
  LDH: 534.6 IU/L
  Na: 141.6 meq/L
  PL: 103.6 mg/dL
  RALB: 3.4 g/dL
  TBIL: 0.2 mg/dL
  TC: 39.4 mg/dL
  TG: 20.8 mg/dL
  TP: 5.9 g/dL
  gamma-GTP: 1.2 IU/L
